Test results reported in PubChem BioAssay (NCI).
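In this assay, cells in 96-well plates receive the compound at five concentrations for 48 hours. Endpoints are linearly interpolated between the surrounding concentrations. TGI marks complete inhibition of growth.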

Tests used:
Assay in all cases: NCI tumour cell line growth inhibition, 48 h
[1] = system: A549 NSCLC
[2] = system: OVCAR-4 ovarian
[3] = system: SF-268 CNS
[4] = system: SW-620 colon
[5] = system: UACC-62 melanoma
[6] = system: MCF7 breast
[7] = system: RPMI-8226 leukemia
[8] = system: HS 578T breast
[9] = system: T-47D breast
[10] = system: BT-549 breast

| SMILES | TGI [1] [µM] | TGI [2] [µM] | TGI [3] [µM] | TGI [4] [µM] | TGI [5] [µM] | TGI [6] [µM] | TGI [7] [µM] | TGI [8] [µM] | TGI [9] [µM] | TGI [10] [µM] |
| --- | --- | --- | --- | --- | --- | --- | --- | --- | --- | --- |
| CC(C)OP(=S)(NC(=S)c1ccccc1)OC(C)C | > 100 | > 100 | > 100 | > 100 | > 100 | – | – | – | – | – |
| COC1OCC(O)C(NC(=O)N(C)N=O)C1O (configuration not stated) | > 100 | > 100 | > 100 | > 100 | > 100 | > 100 | > 100 | – | – | – |
| COc1cccc2c1OC1Sc3ccccc3-c3nn(-c4ccccc4)c-2c31 (configuration not stated) | > 100 | – | > 100 | > 100 | – | – | > 100 | – | – | – |
| O=C(Cc1nc2ccc(C(=O)c3ccccc3)cc2[nH]c1=O)C(=O)Nc1nc2ccccc2[nH]1 | > 100 | > 100 | > 100 | > 100 | > 100 | – | – | – | – | – |
| N#Cc1c(N)oc(-c2ccc([N+](=O)[O-])cc2)c1C#N | > 100 | – | 58.9 | > 100 | > 100 | > 100 | > 100 | 82.8 | 76.2 | – |
| Fc1ccc(-c2sc(-c3ccsc3)cc2Cc2ccsc2)cc1 | > 10 | > 10 | > 10 | > 10 | > 10 | > 10 | > 10 | – | > 10 | – |
| Cc1c(Cc2ccccc2)n(C(C)OCCN(OC(=O)Oc2ccccc2)C(=O)Oc2ccccc2)c(=O)[nH]c1=O (configuration not stated) | 73.9 | 42.8 | 40.3 | 41.7 | 30.5 | 63.8 | 79.6 | 42.6 | – | 33 |
| CNC(=O)N(CCC#N)CCN(C(=O)NC)c1ccccc1 | > 100 | > 100 | > 100 | > 100 | > 100 | > 100 | > 100 | – | > 100 | > 100 |
| Cn1c(-c2ccc(-c3cc(-c4cccs4)c(-c4cccs4)n3C)cc2)cc(-c2cccs2)c1-c1cccs1 | > 100 | > 100 | > 100 | > 100 | > 100 | > 100 | > 100 | > 100 | > 100 | – |
| CC(C)(C)COC(=O)C(C)(C)NC(=O)C(CC(=O)OCc1ccccc1)NC(=O)OCc1ccccc1 (configuration not stated) | > 100 | > 100 | > 100 | > 100 | 80 | > 100 | > 100 | > 100 | 60.2 | – |
| O=C1C=C(Nc2ccccc2C(=O)CC(=O)C(=O)Nc2ccc(Cl)cc2)c2ccccc2C1=O | 32.4 | 37 | 57.5 | 27 | 29.8 | – | > 33.2 | – | – | – |
| CC1=NN(C(=O)Cc2ccccc2)C(=O)/C1=C\c1ccc([N+](=O)[O-])cc1 | > 100 | > 100 | > 100 | > 100 | > 100 | – | > 100 | – | – | – |
| CCn1c2nc(=O)n(CCCCCCCCSC(c3ccccc3)(c3ccccc3)c3ccccc3)c(=O)c-2nc2ccccc21 | – | > 100 | > 100 | > 100 | – | > 100 | > 100 | > 100 | > 100 | – |
| c1coc(-c2nccc3c2[nH]c2ccccc23)c1 | > 100 | > 100 | > 100 | > 100 | > 100 | > 100 | – | > 100 | > 100 | – |
| CCOC(=O)/C=C/C(=O)O/C=C/[N+](=O)[O-] | – | – | > 100 | > 100 | > 100 | > 100 | > 100 | > 100 | > 100 | – |
| O=c1ccc2ccc(CBr)cc2o1 | 30.1 | – | – | 3.2 | 23.1 | 3.87 | – | 28.9 | 5.76 | 8.99 |
| CC(C)(C)N/N=C(\C(=O)Nc1cccc(Cl)c1)C1C(=O)Nc2ccccc2S1=O (configuration not stated) | > 100 | > 100 | > 100 | > 100 | > 100 | – | – | – | – | – |
| O=c1[nH]c2ccccc2c(O)c1Cc1ccccc1 | > 100 | > 100 | > 100 | > 100 | – | > 100 | > 100 | > 100 | – | > 100 |
| CC(=O)c1ccccc1NC(=O)C(=O)C(C(=O)c1ccc2ccccc2c1)C1OC(=O)c2ccccc21 (configuration not stated) | 70.5 | 57 | 51 | 40.6 | 28.1 | – | 52.7 | – | – | – |
| Clc1cc(-c2ccccc2)nc(Nc2nc3ccccc3[nH]2)n1 | > 100 | 33 | 80.9 | 22.2 | 35.4 | – | > 100 | 80.2 | > 100 | 52.9 |
